Results published in ChEMBL document CHEMBL1151642, “Dictyol H, a New Tricyclic Diterpenoid from the Brown Seaweed Dictyota dentata” (J Nat Prod, 1985).
In brackets after ≈: the same amount, converted by molar mass. Activity calls are given as the source filed them. No cut-off for these calls is given here.

What was measured:
Escherichia coli = experiment: Antimicrobial activity against Escherichia coli at 100 ug; assay type: functional, organism-based
[1] = Antitumor activity against human 9KB cells; assay type: functional, cell-based
Pseudomonas aeruginosa = experiment: Antimicrobial activity against Pseudomonas aeruginosa at 100 ug; assay type: functional, organism-based

IC50 [1]: 22 µg/mL (≈ 60.7 µM)
SMILES: C=C1CC[C@@H]([C@@]2(C)CC[C@H](C(C)(C)OC(C)=O)O2)[C@@H](O)[C@H]2C(C)=CC[C@@H]12 [DICTYOL H]
Activity (Escherichia coli): inactive
Activity (Pseudomonas aeruginosa): inactive
